Data on one molecule can be found in patent publication US20260256741A1, “ANTICANCER MALEIMIDE DERIVATIVES FOR USE WITH IMMUNE CHECKPOINT BLOCKADE” (BROWN UNIVERSITY, priority 2022, published 2026).

One test concerns HCT-116 cells. In words: Microarray gene expression analysis, HCT-116. The class given is cell-based, human. How it is done:
A total of 0.5×10^6 tumor cells (HCT-116, HT-29, KM12C) were plated in a 6-well plate and allowed to adhere overnight before 24-hour treatment as indicated. 1×10^6 immune cells (NK92, TALL-104) were plated and treated with elraglusib as indicated for 24 hours. RNA was isolated from cell pellets in batches of 6 using an RNeasy Plus Mini Kit (Cat #74134, Qiagen, Hilden, Germany). Acceptable RNA concentration and quality were verified with Nanodrop and Bioanalyzer measurements. GeneChip™ Human Transcriptome Array 2.0 assays were conducted according to manufacturer instructions in two batches using randomized samples to limit batch effects (Cat #902162, Applied Biosystems, Waltham, MA, USA). Applied Biosystems Transcriptomic Analysis Console (TAC) software (RRID: SCR_016519) was used to calculate fold changes in gene expression relative to the untreated control cells. Values were considered statistically significant for p values <0.05.

The subject of test [1] is tumor cells (HCT-116, HT-29). Put plainly: Cytokine profiling of tumor cell culture supernatant (Luminex 200). The class given is cell-based, human. The settings on record: 48 hours. The procedure:
Cells were plated at 3.5×10^4 cells in a 48-well plate (Thermo Fisher Scientific, Waltham, MA, USA) in complete medium and incubated at 37° C. with 5% CO2. At 24 hours after plating, almost all the tumor cells were adherent to the bottom of the flask and the complete medium was replaced with the drug-containing medium. Subsequently, the culture supernatants were collected after 48 hours of incubation and were frozen at −80° C. until the measurement of cytokines was performed. On the day of analysis, samples were thawed and centrifuged to remove cellular debris.
(§1) Human cell line culture supernatants were analyzed using an R&D systems Human Premixed Multi-Analyte Kit (R&D Systems, Inc., Minneapolis, MN, USA) and a Luminex 200 (RRID: SCR_018025) Instrument (LX200-XPON-RUO, Luminex Corporation, Austin, TX, USA) according to the manufacturer's instructions. Sample levels of TNF-α, 4-1BB/TNFRSF9/CD137, IL-8/CXCL8, Ferritin, IFN-β, IL-10, CCL2/JE/MCP-1, VEGF, CXCL13/BLC/BCA-1, IFN-γ, CCL20/MIP-3 α, CCL3/MIP-1 α, CCL22/MDC, CCL4/MIP-1 β, Fas Ligand/TNFSF6, IL-17/IL-17A, IL-2, BAFF/BLyS/TNFSF13B, GM-CSF, CXCL5/ENA-78, TRANCE/TNFSF11/RANK L, CXCL9/MIG, G-CSF, IFN-γ R1/CD119, VEGFR3/Flt-4, C-Reactive Protein/CRP, CXCL11/I-TAC, IL-21, CXCL14/BRAK, IL-6, Fas/TNFRSF6/CD95, TRAIL R3/TNFRSF10C, IL-4, CCL5/RANTES, PD-L1/B7-H1, CCL7/MCP-3/MARC, Chitinase 3-like 1, CXCL10/IP-10/CRG-2, IL-1 β/IL-1F2, IL-7, Prolactin, CCL8/MCP-2, TRAIL R2/TNFRSF10B, M-CSF, IL-15, Granzyme B, IFN-α, TREM-1, IL-12/IL-23 p40, TRAIL/TNFSF10, CCL11/Eotaxin, and IL-18/IL-1F4. Quantitative analysis with 6 standards and a minimum of 50 counts per bead region was used with the Luminex to generate analyte values reported as picograms/milliliter (pg/mL). Sample concentrations less than the lower limit of detection for each particular analyte were recoded as the lower limit value divided by ten. Sample concentrations above the upper limit of detection for a particular analyte were recoded as the upper limit of detection.

For test [2], the system named is refractory solid tumors of multiple tissue origins. In words: Phase 1 clinical trial of elraglusib (NCT03678883), PFS and OS. The conditions noted are these: patients analysed, n=19, multiple tumor types. The class given is in vivo, human. The procedure: Archival tumor specimens and peripheral blood samples were collected from patients enrolled in the Phase I study of Elraglusib (9-ING-41), a small molecule selective glycogen synthase kinase-3 beta (GSK-3b) inhibitor, as monotherapy or combined with cytotoxic regimens in patients with relapsed or refractory hematologic malignancies or solid tumors (Clinicaltrials.gov NCT03678883) who received treatment at the Lifespan Cancer Institute (Providence, RI, USA). The study was conducted in accordance with the Declaration of Helsinki and the International Conference on Harmonization Good Clinical Practice guidelines. The study protocol was approved by the Institutional Review Board (IRB) of Rhode Island Hospital under protocol number 1324888-120. The patients also participated in a Lifespan Cancer Institute research protocol designed to investigate molecular and genetic features of tumors and mechanisms of resistance (Rhode Island Hospital IRB protocol number 449060-38). All patients provided written informed consent.

The nature of test [3]: Patient plasma cytokine profiling (Luminex 200), Phase 1 trial. The class given is in vivo, human. How it is done: as §1, with “Sample concentrations above the upper limit of detection for a particular analyte were recoded as the upper limit of detection.” left out

Take `Cn1cc(C2=C(c3coc4ccc(F)cc34)C(=O)NC2=O)c2cc3c(cc21)OCO3` [elraglusib, 3-(5-fluorobenzofuran-3-yl)-4-(5-methyl-5H-[1,3]dioxolo[4,5-f]indol-7-yl)-1H-pyrrole-2,5-dione]: in the test with HCT-116 cells (24 hours vs DMSO), the “CMTM4 gene expression fold change” value is −1.84 FC, the “NEK2 gene expression fold change” value is reported as −2.21 FC, the “PPP1R1C gene expression fold change” value came to 1.78 FC and the “downregulated genes in VEGFA-VEGFR2 signaling pathway” value was found to be 29. For the same molecule, in the test on HCT-116 cells (IC-50 concentration (1 μM), 24 hours, FC cutoff >1.5, <−1.5, p<0.05), the “differentially expressed genes post-treatment” value came to 340. Besides, in test [1] (1 μM or 5 μM), the CCL5/RANTES secretion result is “downregulated post-treatment”, the DcR3 secretion result is listed as “downregulated post-treatment”, the Fas secretion result is on record as “downregulated post-treatment” and the “soluble PD-L1 (sPD-L1) secretion” value is on record as “downregulated post-treatment”. Also, in test [1] (both cell lines, 1 μM and 5 μM), the GDF-15 secretion result was “decreased secretion”, the GM-CSF secretion result is listed as “decreased secretion” and the VEGF secretion entry is reported as “decreased secretion”. In test [2], the “median OS” value was 101 days and the “median PFS” value was determined as 75.9 days. The “plasma cytokines, chemokines and growth factors (many of the analytes) vs baseline” value in test [3] (8- and 24-hours post-dose) is listed as “upregulated”. Besides, in test [3] (patients receiving a 7 mg/kg dose, 8- and 24-hour post-dose), the “plasma expression of many of the analytes in the panel” value is recorded as “increased expression”.
